pIC50: −log10 of the molar value. The source made the active and inactive calls. No cut-off for these calls is given here.
Key:
[1] = target: T1, Nuclear factor NF-kappa-B complex (Homo sapiens) (UniProt Q00653+P19838+Q04206); assay: Inhibition of NFkappaB (unknown origin) expressed in LPS-stimulated HEK293-NF-kappaB-luc cells assessed as luminescence signals measured by relative light units at 100 ug/mL pre-treated for 4 hrs before LPS challenge for 24 hrs by luciferase assay; assay type: cell-based
[2] = target: T1, Nuclear factor NF-kappa-B complex (Homo sapiens); assay: Inhibition of NFkappaB (unknown origin) expressed in LPS-stimulated HEK293-NF-kappaB-luc cells assessed as luminescence signals measured by relative light units at 1 ug/mL pre-treated for 4 hrs before LPS challenge for 24 hrs by luciferase assay; assay type: cell-based
[3] = target: T1, Nuclear factor NF-kappa-B complex (Homo sapiens); assay: Inhibition of NFkappaB (unknown origin) expressed in LPS-stimulated HEK293-NF-kappaB-luc cells assessed as luminescence signals measured by relative light units at 500 ug/mL pre-treated for 4 hrs before LPS challenge for 24 hrs by luciferase assay; assay type: cell-based
[4] = target: T1, Nuclear factor NF-kappa-B complex (Homo sapiens); assay: Inhibition of NFkappaB (unknown origin) expressed in LPS-stimulated HEK293-NF-kappaB-luc cells assessed as luminescence signals measured by relative light units at 10 ug/mL pre-treated for 4 hrs before LPS challenge for 24 hrs by luciferase assay; assay type: cell-based
Dipeptidyl peptidase 4 = Dipeptidyl peptidase 4 (Homo sapiens, UniProt P27487); assay: Inhibition of DPP4 in human plasma using Gly-Pro-AMC substrate incubated for 20 mins by fluorometry
Dipeptidyl peptidase 4, sequence (P27487 whole entry): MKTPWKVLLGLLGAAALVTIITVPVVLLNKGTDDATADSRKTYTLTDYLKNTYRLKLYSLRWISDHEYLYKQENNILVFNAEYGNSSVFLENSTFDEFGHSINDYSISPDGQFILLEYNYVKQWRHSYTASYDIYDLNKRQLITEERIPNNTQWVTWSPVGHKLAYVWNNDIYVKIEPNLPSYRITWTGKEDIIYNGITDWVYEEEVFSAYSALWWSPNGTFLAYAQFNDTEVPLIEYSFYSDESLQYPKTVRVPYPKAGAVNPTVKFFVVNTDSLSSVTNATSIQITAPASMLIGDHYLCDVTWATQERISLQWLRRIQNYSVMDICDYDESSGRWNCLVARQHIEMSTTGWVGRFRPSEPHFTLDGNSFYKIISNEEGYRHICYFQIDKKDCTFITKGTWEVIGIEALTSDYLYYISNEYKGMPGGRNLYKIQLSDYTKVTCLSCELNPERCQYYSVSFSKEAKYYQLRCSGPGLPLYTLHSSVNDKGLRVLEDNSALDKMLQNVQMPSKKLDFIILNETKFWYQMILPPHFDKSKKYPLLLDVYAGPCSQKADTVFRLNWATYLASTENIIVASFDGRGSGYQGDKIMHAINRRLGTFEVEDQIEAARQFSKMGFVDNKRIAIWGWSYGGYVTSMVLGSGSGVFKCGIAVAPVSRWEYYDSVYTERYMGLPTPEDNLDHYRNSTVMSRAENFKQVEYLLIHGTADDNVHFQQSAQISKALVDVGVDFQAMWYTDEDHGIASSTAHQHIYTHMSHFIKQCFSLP

T1 sequence (P19838 whole entry, looked up): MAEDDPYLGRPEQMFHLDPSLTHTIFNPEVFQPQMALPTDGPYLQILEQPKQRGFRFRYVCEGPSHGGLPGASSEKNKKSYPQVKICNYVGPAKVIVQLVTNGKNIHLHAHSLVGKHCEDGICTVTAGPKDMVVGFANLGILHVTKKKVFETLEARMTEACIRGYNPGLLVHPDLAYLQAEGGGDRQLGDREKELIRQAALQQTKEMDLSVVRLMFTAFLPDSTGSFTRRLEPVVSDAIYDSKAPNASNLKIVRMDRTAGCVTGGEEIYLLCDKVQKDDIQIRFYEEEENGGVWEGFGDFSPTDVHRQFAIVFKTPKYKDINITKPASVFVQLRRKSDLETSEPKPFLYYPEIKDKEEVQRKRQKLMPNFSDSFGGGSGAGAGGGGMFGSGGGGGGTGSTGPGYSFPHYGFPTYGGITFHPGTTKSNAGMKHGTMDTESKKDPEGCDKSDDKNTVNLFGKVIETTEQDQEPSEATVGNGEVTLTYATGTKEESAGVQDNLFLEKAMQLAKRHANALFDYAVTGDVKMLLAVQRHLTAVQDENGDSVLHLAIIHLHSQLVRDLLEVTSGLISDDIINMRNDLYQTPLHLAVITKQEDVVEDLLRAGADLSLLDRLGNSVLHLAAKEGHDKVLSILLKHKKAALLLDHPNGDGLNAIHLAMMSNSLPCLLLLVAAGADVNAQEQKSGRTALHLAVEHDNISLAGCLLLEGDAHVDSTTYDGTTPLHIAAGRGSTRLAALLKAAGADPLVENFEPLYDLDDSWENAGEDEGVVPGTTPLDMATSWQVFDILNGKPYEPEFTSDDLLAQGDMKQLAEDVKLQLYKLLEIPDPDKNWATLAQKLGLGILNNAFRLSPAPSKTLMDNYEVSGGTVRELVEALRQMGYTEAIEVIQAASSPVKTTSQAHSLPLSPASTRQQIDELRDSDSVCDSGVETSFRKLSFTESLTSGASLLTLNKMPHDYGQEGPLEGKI
T1 sequence (Q00653 whole entry, looked up): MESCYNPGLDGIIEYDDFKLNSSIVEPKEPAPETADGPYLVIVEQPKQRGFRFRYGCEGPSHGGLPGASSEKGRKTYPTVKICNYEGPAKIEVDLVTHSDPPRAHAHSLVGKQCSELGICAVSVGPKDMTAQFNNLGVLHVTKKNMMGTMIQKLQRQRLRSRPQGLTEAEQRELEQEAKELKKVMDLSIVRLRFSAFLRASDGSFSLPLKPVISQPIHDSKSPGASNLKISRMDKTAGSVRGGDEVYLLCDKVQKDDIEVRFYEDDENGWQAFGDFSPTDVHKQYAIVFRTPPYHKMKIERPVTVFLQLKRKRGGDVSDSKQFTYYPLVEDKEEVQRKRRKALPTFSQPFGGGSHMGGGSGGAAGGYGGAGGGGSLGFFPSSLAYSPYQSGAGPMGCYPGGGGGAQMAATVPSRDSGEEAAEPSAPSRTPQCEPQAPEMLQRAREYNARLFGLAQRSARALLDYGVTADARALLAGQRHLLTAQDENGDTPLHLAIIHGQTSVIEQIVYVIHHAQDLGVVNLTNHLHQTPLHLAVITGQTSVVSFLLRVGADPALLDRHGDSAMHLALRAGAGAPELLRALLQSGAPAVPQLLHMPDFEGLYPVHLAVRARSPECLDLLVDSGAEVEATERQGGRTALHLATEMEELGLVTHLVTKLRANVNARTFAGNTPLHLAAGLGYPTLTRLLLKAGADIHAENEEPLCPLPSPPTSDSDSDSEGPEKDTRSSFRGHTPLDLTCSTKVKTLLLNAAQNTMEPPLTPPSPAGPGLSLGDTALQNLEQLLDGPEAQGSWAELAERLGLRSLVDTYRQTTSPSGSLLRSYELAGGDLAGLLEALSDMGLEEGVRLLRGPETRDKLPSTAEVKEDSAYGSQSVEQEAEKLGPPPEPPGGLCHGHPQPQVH
T1 sequence (Q04206 whole entry, looked up): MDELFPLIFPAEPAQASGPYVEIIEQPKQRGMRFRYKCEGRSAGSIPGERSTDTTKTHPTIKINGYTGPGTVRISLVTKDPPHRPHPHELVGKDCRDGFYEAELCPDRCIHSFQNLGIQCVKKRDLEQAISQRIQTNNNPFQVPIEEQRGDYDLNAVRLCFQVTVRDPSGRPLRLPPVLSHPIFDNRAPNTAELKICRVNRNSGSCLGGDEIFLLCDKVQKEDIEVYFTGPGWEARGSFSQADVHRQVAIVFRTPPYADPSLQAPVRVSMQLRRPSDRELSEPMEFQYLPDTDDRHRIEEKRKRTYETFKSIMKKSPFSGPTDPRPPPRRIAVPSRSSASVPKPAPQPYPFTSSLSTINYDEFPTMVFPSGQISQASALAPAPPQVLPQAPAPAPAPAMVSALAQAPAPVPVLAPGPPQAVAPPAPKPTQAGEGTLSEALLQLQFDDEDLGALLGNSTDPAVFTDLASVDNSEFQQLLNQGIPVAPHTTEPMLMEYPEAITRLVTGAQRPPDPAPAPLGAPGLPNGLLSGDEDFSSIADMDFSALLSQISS

| Activity [1] | Activity [2] | Activity [3] | Activity [4] | RLU [1] | RLU [2] | RLU [3] | RLU [4] | Compound | pIC50 (Dipeptidyl peptidase 4) |
| --- | --- | --- | --- | --- | --- | --- | --- | --- | --- |
| inactive | inactive | inactive | inactive |  |  |  |  | CC1(C)[C@@H](O[C@@H]2O[C@H](CO)[C@@H](O)[C@H](O)[C@H]2O)CC[C@]2(C)[C@H]3CC=C4[C@@H]5C[C@](C)(CO)CC[C@]5(C)[C@@H](O)C[C@@]4(C)[C@]3(C)CC[C@@H]12 |  |
|  |  |  |  | 0.49 | 0.01 | 0.72 | 0.06 | CC1(C)C=C2[C@H]3CC[C@@H]4[C@@]5(C)CC[C@H](O[C@@H]6O[C@H](CO)[C@@H](O)[C@H](O)[C@H]6O[C@@H]6O[C@H](CO)[C@@H](O)[C@H](O)[C@H]6O)C(C)(C)[C@@H]5CC[C@@]4(C)[C@]3(C)CC[C@@]2(C(=O)O[C@@H]2O[C@H](CO)[C@@H](O)[C@H](O)[C@H]2O)CC1 |  |
| inactive | inactive | inactive | inactive |  |  |  |  | CC(C)[C@H]1C[C@H]2O[C@@]2(C)[C@@H](O)[C@H]1O[C@@H]1O[C@H](CO)[C@@H](O)[C@H](O)[C@H]1O (relative stereo) |  |
|  |  |  |  | 0.47 | 0.09 | 0.59 | 0.23 | CC1(C)CC[C@]2(C(=O)O[C@@H]3O[C@H](CO)[C@@H](O)[C@H](O)[C@H]3O)CC[C@]3(C)C(=CC[C@@H]4[C@@]5(C)CC[C@H](O[C@@H]6O[C@H](CO)[C@@H](O)[C@H](O)[C@H]6O[C@@H]6O[C@H](CO)[C@@H](O)[C@H](O)[C@H]6O)C(C)(C)[C@@H]5CC[C@]43C)[C@@H]2C1 |  |

The remaining lines, values behind:

| Compound | Activity [1] | Activity [2] | Activity [3] | Activity [4] | RLU [1] | RLU [2] | RLU [3] | RLU [4] | pIC50 (Dipeptidyl peptidase 4) |
| --- | --- | --- | --- | --- | --- | --- | --- | --- | --- |
| C=C(C)[C@@H]1CC[C@]2(C(=O)O[C@@H]3O[C@H](CO)[C@@H](O)[C@H](O)[C@H]3O)CC[C@]3(C)[C@H](CC[C@@H]4[C@@]5(C)CC[C@H](O[C@@H]6O[C@H](CO)[C@@H](O)[C@H](O)[C@H]6O)C(C)(C)[C@@H]5CC[C@]43C)[C@@H]12 | inactive | inactive | inactive | inactive |  |  |  |  |  |
| C=CC(C)(O)CC/C=C(\C)CC/C=C(\C)CO[C@@H]1O[C@H](CO)[C@@H](O)[C@H](O)[C@H]1O (some centres not stated) |  |  |  |  | 0.26 | 0.04 | 0.47 | 0.21 |  |
| C=CC(O)C(/C=C/C#CC#CC#CC)O[C@@H]1O[C@H](CO)[C@@H](O)[C@H](O)[C@H]1O (some centres not stated) |  |  |  |  |  |  |  |  | < 4.00 |
| CC(C)[C@H]1C[C@H]2O[C@@]2(C)[C@@H](O)[C@H]1O[C@@H]1O[C@H](COC(=O)/C=C/c2ccc(O)c(O)c2)[C@@H](O)[C@H](O)[C@H]1O (relative stereo) | inactive | inactive | inactive | inactive |  |  |  |  |  |
| CC#CC#CC#C/C=C/C=C/C(CCO)O[C@@H]1O[C@H](CO)[C@@H](O)[C@H](O)[C@H]1O (some centres not stated) |  |  |  |  |  |  |  |  | < 4.00 |
| C[C@H]1[C@H]2[C@H]3CC[C@@H]4[C@@]5(C)CC[C@H](O[C@@H]6O[C@H](CO)[C@@H](O)[C@H](O)[C@H]6O)C(C)(C)[C@@H]5CC[C@@]4(C)[C@]3(C)C[C@H](O)[C@@]2(C)CC[C@]1(C)O | inactive | inactive | inactive | inactive |  |  |  |  |  |
| C[C@]12CCC(=O)C=C1CC[C@@H]1[C@@H]2[C@@H](O)C[C@@]2(C)[C@H]1CC[C@]2(O)C(=O)CO |  |  |  |  | 0.45 | 0.15 | 0.64 | 0.32 |  |
| CC1(C)CC[C@]2(C(=O)O[C@@H]3O[C@H](CO)[C@@H](O)[C@H](O)[C@H]3O)CC[C@]3(C)C(=CC[C@@H]4[C@@]5(C)CC[C@H](O[C@@H]6O[C@H](CO)[C@@H](O)[C@H](O)[C@H]6O)C(C)(C)[C@@H]5CC[C@]43C)[C@@H]2C1 | inactive | inactive | inactive | inactive |  |  |  |  |  |
| CC1(C)CC[C@]2(C(=O)O[C@@H]3O[C@H](CO)[C@@H](O)[C@H](O)[C@H]3O)[C@H](O)C[C@]3(C)C(=CC[C@@H]4[C@@]5(C)CC[C@H](O[C@@H]6O[C@H](CO)[C@@H](O)[C@H](O)[C@H]6OS(=O)(=O)O)C(C)(C)[C@@H]5CC[C@]43C)[C@@H]2C1 |  |  |  |  | 0.23 | -0.01 | 0.07 | 0.16 |  |
| CC1(C)CC[C@]2(C(=O)O[C@@H]3O[C@H](CO)[C@@H](O)[C@H](O)[C@H]3O)[C@H](O)C[C@]3(C)C(=CC[C@@H]4[C@@]5(C)CC[C@H](O[C@@H]6O[C@H](CO)[C@@H](O)[C@H](O)[C@H]6O)C(C)(C)[C@@H]5CC[C@]43C)[C@@H]2C1 |  |  |  |  | 0.33 | 0.08 | 0.5 | 0.22 |  |
| C[C@H]1[C@H]2[C@H]3CC[C@@H]4[C@@]5(C)CC[C@H](O[C@@H]6O[C@H](CO)[C@@H](O)[C@H](O)[C@H]6O)C(C)(C)[C@@H]5CC[C@@]4(C)[C@]3(C)CC[C@@]2(CO)CC[C@]1(C)O |  |  |  |  | 0.47 | 0.18 | 0.5 | 0.24 |  |
| CC1(C)CC[C@]2(C(=O)O[C@@H]3O[C@H](CO)[C@@H](O)[C@H](O)[C@H]3O)[C@H](O)C[C@]3(C)C(=CC[C@@H]4[C@@]5(C)CC[C@H](O[C@@H]6O[C@H](CO)[C@@H](O)[C@H](O)[C@H]6O[C@@H]6O[C@H](CO)[C@@H](O)[C@H](O)[C@H]6O)C(C)(C)[C@@H]5CC[C@]43C)[C@@H]2C1 | inactive | inactive | inactive | inactive |  |  |  |  |  |
| CC1(C)CC[C@]2(C(=O)O[C@@H]3O[C@H](CO)[C@@H](O)[C@H](O)[C@H]3O)[C@@H](O)C[C@]3(C)C(=CC[C@@H]4[C@@]5(C)CC[C@H](O[C@@H]6O[C@H](CO)[C@@H](O)[C@H](O)[C@H]6O)C(C)(C)[C@@H]5CC[C@]43C)[C@@H]2C1 | inactive | inactive | inactive | inactive |  |  |  |  |  |
